Experimental data as given in a compilation of properties of binary mixtures (doi:10.1016/j.molliq.2020.113538).

Assay: xn = mol fraction of the nth substance listed
Details: 101 kPa

CC[n+]1ccn(CCOC)c1.O=S(=O)([O-])C(F)(F)F + CCO
viscosity [mPa·s]
Details	x1 = 0.0996	x1 = 0.1999	x1 = 0.2996	x1 = 0.3984	x1 = 0.4991	x1 = 0.603	x1 = 0.699	x1 = 0.797	x1 = 0.899	x1 = 1
288.15 K	2.654	4.54	–	12.13	19.22	28.7	43.6	62.8	84.4	121
293.15 K	2.374	4.01	6.66	10.37	16.43	23.77	–	–	–	92.5
298.15 K	2.139	–	5.84	8.96	13.98	19.98	29.12	–	52.2	72.5
303.15 K	–	–	5.16	7.82	11.97	17.28	24.38	32.04	42.9	–
308.15 K	1.757	2.916	4.59	6.88	10.34	–	20.67	–	–	47.3
313.15 K	1.603	2.644	4.11	6.09	9.01	12.4	17.99	–	28.85	39
318.15 K	1.467	2.409	3.72	5.43	7.9	11.16	15.6	–	23.82	32.59

CCO + CC[n+]1ccn(CCOC)c1.O=S(=O)([O-])C(F)(F)F
x2 = 0
Details	viscosity [mPa·s]
288.15 K	1.319
293.15 K	1.195
298.15 K	1.086
303.15 K	0.989
308.15 K	0.903
313.15 K	0.825
318.15 K	0.757
